US20120309821A1, “Use of epigallocatechin-3-gallate for immune regulation” (NATIONAL DEFENSE MEDICAL CENTER, priority 2011, published 2012)

Legend:
[1] = test system: glutathione peroxidase (GPx); assay: GPx activity in renal cortex lysates; type: in vivo, mouse; settings: 120 mg/kg by gavage daily; week 34; compared with increase in disease control mice
Description: (§1) Female NZB/W F1 mice were purchased from the Animal Center of the National Taiwan University (Taipei, Taiwan, ROC) and, at 12 weeks of age, were divided into two groups, one of which was given normal saline and served as the disease control, while the other was given 120 mg/kg body weight of EGCG (Ryss Lab, Inc., CA, USA) (this dose is a slight modification of those used in previous in vivo studies) by gavage daily till sacrificed at 34-weeks-old. 8-Week-old NZB/W F1 female mice (prior to onset of autoantibody production) were used as normal controls. Urine samples were collected in metabolic cages every 2 weeks and urine protein levels were measured, and serum samples were used to measure serum levels of blood urea nitrogen (BUN) and creatinine (Cr) as described previously (Ka, S. M. et al. Decoy receptor 3 ameliorates an autoimmune crescentic glomerulonephritis model in mice. J Am Soc Nephrol 18:2473-2485; 2007). All animal experiments were performed upon the ethical approval of the Institutional Animal Care and Use Committee of the National Defense Medical Center, Taiwan and according to the ethical rules in the NIH Guide for the Care and Use of Laboratory Animals.

Nrf2 = assay: Western blot of nuclear Nrf2 in kidney; type: in vivo, mouse; settings: 120 mg/kg by gavage daily, week 34, compared to disease controls
Description: as §1, with “Animals. […] Antibodies to histone H3 (Cell Signaling) or β-actin (Santa Cruz) were used as internal controls for the nuclear and cytosolic target proteins, respectively.” for “Animals.”

IL-1β = assay: Serum IL-1β ELISA; type: in vivo, mouse; settings: 120 mg/kg by gavage daily; week 34; vs disease control mice
Description: as §1, with “Animals. Serum levels of IL-1β and IL-18 were measured using commercial ELISA kits (BD Biosciences) according to the manufacturer's instructions.” for “Animals.”

superoxide anion = assay: Superoxide anion (ROS) levels in serum, urine and kidney; type: in vivo, mouse; settings: 120 mg/kg by gavage daily, week 34
Description: as §1, with “Animals. Kidney in situ superoxide anion production was determined by dihydroethidium (DHE) labeling. Fluorescent images were quantified by counting the percentage of positive nuclei in the total nuclei per kidney cross-section. Superoxide anion levels in serum and kidney tissues were measured as described previously and the results expressed as reactive luminescence units (RLU) per 15 min per milligram dry weight (i.e., RLU/15 min/mg dry weight).” for “Animals.”

CD4+CD25+ Treg cells = assay: Treg cell functional assay (3H-thymidine proliferation, cells from treated mice); type: cell-based, mouse

Epigallocatechin-3-gallate [EGCG]
GPx activity in the kidney [1]: even larger increase
Nrf2 translocation into the nucleus (Nrf2): markedly increased
serum levels of IL-1β (IL-1β): significantly lower
levels of superoxide anion in the kidney (superoxide anion; kidney): inhibited
superoxide anion levels in the serum (superoxide anion; serum): decreased by EGCG treatment to levels similar to those in normal control mice
superoxide anion levels in the urine (superoxide anion; urine): decreased by EGCG treatment to levels similar to those in normal control mice
proliferation of Treg cells incubated alone following anti-CD3 antibody stimulation (CD4+CD25+ Treg cells; Treg cells from EGCG-treated mice): did not proliferate
inhibition of responder T cell proliferation by added Treg cells (Treg cell activity) (CD4+CD25+ Treg cells; Treg cells from EGCG-treated mice vs Treg cells from disease control mice, titration): much greater
proliferation of responder T cells incubated alone following anti-CD3 antibody stimulation (CD4+CD25+ Treg cells; responder T cells from EGCG-treated vs disease control mice): proliferated, but to an equal extent
